# Laboratory results as given in patent US9907797B2, “Combination therapies for overcoming resistance to mitotic agents during chemotherapy” (EMORY UNIVERSITY, priority 2014, dated 2018).
# Assays:
# [1] = system: H460 cell line; test: Tumor growth in H460 mouse xenografts; format: in vivo, nude mice
# Experimental: Pharmacokinetics of A3 were performed at various time points after iv and oral administration of a single dose of ‘A3’ at 10 mg/kg. 2.5×10^5 H460 cells were transplanted into the flank of nude mice were. 5 days after transplant, I.P. injection of DMSO, A3, docetaxel, or combination commenced. Explanted tumors are smallest in mice that were treated with combination therapy.
# The in-vivo effects of ‘A3’, docetaxel and the combination on tumor growth in mouse xenografts, who were previously injected with the H460 cell line were evaluated.
# [2] = Toxicity in treated xenograft mice; format: in vivo; conditions: combination treatment with A3 and docetaxel, 10 days after treatment
# [3] = target: T1, CHFR (Homo sapiens, UniProt Q96EP1); test: CHFR protein levels in A549 nuclear extracts; format: cell-based; set-up: endogenous in cells; host or cells: A549
# T1 sequence (Q96EP1 1-664): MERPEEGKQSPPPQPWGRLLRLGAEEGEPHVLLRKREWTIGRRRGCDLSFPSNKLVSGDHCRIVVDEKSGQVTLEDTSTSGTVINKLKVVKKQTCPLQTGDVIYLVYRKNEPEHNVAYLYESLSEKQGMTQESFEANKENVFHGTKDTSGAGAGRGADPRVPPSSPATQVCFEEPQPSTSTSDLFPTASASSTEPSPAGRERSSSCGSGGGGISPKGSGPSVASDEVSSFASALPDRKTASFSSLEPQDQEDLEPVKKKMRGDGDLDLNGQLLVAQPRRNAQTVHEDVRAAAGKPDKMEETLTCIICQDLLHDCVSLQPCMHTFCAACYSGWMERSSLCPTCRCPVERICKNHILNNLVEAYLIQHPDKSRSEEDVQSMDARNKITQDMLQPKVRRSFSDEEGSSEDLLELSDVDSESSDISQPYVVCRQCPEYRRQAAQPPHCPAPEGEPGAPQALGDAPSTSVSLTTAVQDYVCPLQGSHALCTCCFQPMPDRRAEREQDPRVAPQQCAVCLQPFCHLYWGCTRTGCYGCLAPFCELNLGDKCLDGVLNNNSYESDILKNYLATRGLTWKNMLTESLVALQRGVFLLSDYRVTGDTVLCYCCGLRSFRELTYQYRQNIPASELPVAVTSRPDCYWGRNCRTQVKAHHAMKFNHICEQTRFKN
# Experimental: (§1) HEK293 cells were stably transfected with the pDEST27-AR-CHFR construct. Deletion of the RING domain in this construct leads to both stable CHFR and PARP1 expression that is unaltered by treatment with increasing concentrations of ‘A3’ for 16 hours. Nonetheless, the interaction between glutathione-affinity purified CHFR-ΔR and PARP1 was decreased by ‘A3’ in a dose dependent fashion. A549 cells were incubated for 16.5 hrs with MG132 and indicated A3 concentration for 16 hrs. At 10 uM A3 concentration CHFR staining is diminished in the nucleus Cells are stained with CHFR.
# (§2) In an attempt to generate possible lead compounds for the pharmacologic inhibition of the CHFR-PARP1 interaction, a high throughput computational screen of 5,256,508 chemical structures in the MCULE database of purchasable compounds using the AutoDockVina algorithm against the published crystal structure of the CHFR-PBZ domain was performed. The 10 most promising ‘hits’ based on Autodock Vina docking scores (<−9.7) were selected for further characterization. Commercially available compounds were tested for their impact on nuclear CHFR levels (FIG. 3A). […] The impact of the above referenced compounds on the PARP1/CHFR interaction were evaluated. HEK293 cells were transfected with GST tagged PARP1 and the interaction with CHFR determined in pull down assays for those 4 compounds. […]
# [4] = system: A549 cells; test: Cell viability assay, A3 with docetaxel; format: cell-based
# [5] = target: T1, CHFR; test: Nuclear localization of CHFR (staining) in A549 cells with MG-132; format: cell-based; set-up: endogenous in cells; host or cells: A549; conditions: A3 in combination with MG-132, A549 cells
# Experimental: as §1, §2
# [6] = target: T1, CHFR; test: CHFR levels by western blotting of whole cell extracts; format: cell-based; set-up: endogenous in cells; host or cells: A549; conditions: 10 uM, 24 hours, A549 cells
# Experimental: The 10 compounds with the highest docking scores were tested for their ability to regulate CHFR expression levels.
# In an attempt to generate possible lead compounds for the pharmacologic inhibition of the CHFR-PARP1 interaction, a high throughput computational screen of 5,256,508 chemical structures in the MCULE database of purchasable compounds using the AutoDockVina algorithm against the published crystal structure of the CHFR-PBZ domain was performed. The 10 most promising ‘hits’ based on Autodock Vina docking scores (<−9.7) were selected for further characterization. Commercially available compounds were tested for their impact on nuclear CHFR levels (FIG. 3A). Several compounds, including ‘A2’, ‘A3’, ‘A4’ and ‘A6’ decreased CHFR levels assayed by western blotting of whole cell extracts. The impact of the above referenced compounds on the PARP1/CHFR interaction were evaluated. HEK293 cells were transfected with GST tagged PARP1 and the interaction with CHFR determined in pull down assays for those 4 compounds. […] In contrast to treatment with ABT-888, ‘A3’ completely disrupted the interaction between GST-tagged PARP-1 and CHFR (FIG. 3B). […]
# [7] = system: A549 cells; test: Cell cycle analysis by flow-cytometry, antephase checkpoint; format: cell-based; conditions: unsynchronized A549 cells, 12 hours, docetaxel 50 nM with A3 10 uM
# Source text: Cell cycle arrest at G2/M in response to microtubular damage is a hallmark of a functional antephase checkpoint.
# [8] = system: CHFR expressing cell lines; test: Colony formation assays on a panel of cell lines of different cancer types; format: cell-based
# Experimental: Various cell lines of different tissues of origin and with different CHFR expression status were exposed to 1 hour of docetaxel and 72 hours of ‘A3’. Effects were defined as 1−colony count (treatment)/colony count (control). The nature of the interaction between the two compounds was analyzed by the Bliss additivity method. […] For subsequent colony formation assays, cell lines were characterized into CHFR expressing vs. CHFR deficient cell lines by Western-Blot.
# Finally, colony formation assays were performed on a panel of cell lines of different cancer types such as lung-, breast-, and colon cancer.
# [9] = system: CHFR-PARP1 interaction; test: Glutathione affinity purification of Ring-domain deleted ΔR-CHFR and PARP1 in HEK293 cells; format: cell-based; conditions: increasing concentrations, 16 hours, ΔR-CHFR construct
# Experimental: as §1, §2
structure (smiles),measurement,setting,value
"Cc1ccc(N2C(=O)NC(=O)C(=Cc3cn(Cc4ccccc4)c4ccccc34)C2=O)cc1C [A3, 5-((1-benzyl-1H-indol-3-yl)methylene)-1-(3,4-dimethylphenyl)pyrimidine-2,4,6(1H,3H,5H)-trione]",tumor growth,"[1]; A3 alone compared to DMSO alone, I.P.",did not have a discernable effect on tumor growth
same,tumor size,"[1]; A3 given 4 hours prior to docetaxel, compared to docetaxel alone",significantly decreased tumor size
same,"hematologic, hepatic and renal toxicity",[2],"not associated with a significant increase in hematologic, hepatic and renal toxicity"
same,CHFR protein levels,"[3]; 10 uM, 16 hrs, A549",complete disappearance of CHFR
same,CHFR protein levels,[3]; low concentrations of A3,initial increase in CHFR protein levels
same,nature of interaction of A3 and docetaxel by combination index,[4]; 10 and 20 uM/nM concentrations,synergistic effects
same,"cell viability, combination treated cells","[4]; A3 plus docetaxel, 10 and 20 nM concentrations, 72 hours, p<0.01",statistically significantly decreased viability
same,Combination index (CI),"[4]; A3 with docetaxel, A549 cells, 72 hours, Chou-Talaley method",< 1
same,nuclear localization of CHFR,[5],depletion of nuclear CHFR and accumulation of cytoplasmic CHFR
same,CHFR expression,[6],reduced CHFR expression
same,docetaxel induced cell cycle arrest,[7],prevented docetaxel induced cell cycle arrest
same,"synergy between A3 and docetaxel, colony formation (Bliss additivity)",[8]; CHFR expressing cell line H460,strong synergy
same,"synergy between A3 and docetaxel, colony formation (Bliss additivity)","[8]; CHFR expressing cell lines other than EKVX, 1 hour docetaxel, 72 hours A3",synergy between ‘A3’ and docetaxel was observed for all other CHFR expressing cell lines
same,interaction between CHFR-ΔR and PARP1,[9],dose dependent inhibition of the interaction between CHFR and PARP1
